The chains are these.
T1: BK (Clostridium acetobutylicum, UniProt Q45829)
T1 construct: made in house; host or cells: E. coli, crude cell extract (pZA33-0020-0021)
T1 sequence (Q45829 1-355): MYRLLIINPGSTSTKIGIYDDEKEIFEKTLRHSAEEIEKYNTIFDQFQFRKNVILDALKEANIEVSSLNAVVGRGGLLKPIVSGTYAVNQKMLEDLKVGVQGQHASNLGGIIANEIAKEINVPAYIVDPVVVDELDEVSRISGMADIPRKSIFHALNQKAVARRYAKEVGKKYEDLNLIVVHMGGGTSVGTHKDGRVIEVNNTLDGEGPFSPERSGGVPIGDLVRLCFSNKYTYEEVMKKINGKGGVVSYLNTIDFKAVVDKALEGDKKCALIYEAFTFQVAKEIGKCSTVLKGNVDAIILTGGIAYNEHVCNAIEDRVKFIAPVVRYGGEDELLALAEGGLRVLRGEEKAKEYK

B1: BK: Butyrate kinase from C. acetobutylicum (gene 0021), native ptb/bk operon expressed in pZA33; cell extract (protein, listed as Clostridium acetobutylicum)
chain: MYRLLIINPGSTSTKIGIYDDEKEIFEKTLRHSAEEIEKYNTIFDQFQFRKNVILDALKEANIEVSSLNAVVGRGGLLKPIVSGTYAVNQKMLEDLKVGVQGQHASNLGGIIANEIAKEINVPAYIVDPVVVDELDEVSRISGMADIPRKSIFHALNQKAVARRYAKEVGKKYEDLNLIVVHMGGGTSVGTHKDGRVIEVNNTLDGEGPFSPERSGGVPIGDLVRLCFSNKYTYEEVMKKINGKGGVVSYLNTIDFKAVVDKALEGDKKCALIYEAFTFQVAKEIGKCSTVLKGNVDAIILTGGIAYNEHVCNAIEDRVKFIAPVVRYGGEDELLALAEGGLRVLRGEEKAKEYK

The test system of the first data set is aminotransferase from Leishmania mexicana.
Test: not given
To be noted: activity considered 100% on tyrosine; cited from earlier work.
Consider `CC(C)C[C@H](N)C(=O)O` [leucine], for which the “activity (substrate specificity)” value is 25%.
As for `CSCC[C@H](N)C(=O)O` [methionine], the “activity (substrate specificity)” value is given as 25%.
For `N[C@@H](Cc1ccccc1)C(=O)O` [phenylalanine], the “activity (substrate specificity)” value is on record as 90%.
As for `N[C@@H](Cc1c[nH]c2ccccc12)C(=O)O` [tryptophan], the “activity (substrate specificity)” value is listed as 85%.
On to `N[C@@H](Cc1ccc(O)cc1)C(=O)O` [tyrosine], for which the “activity (substrate specificity)” value was 100%.

A further data set has as its target T1, BK. Kind of data set: Butyrate kinase (BK) enzyme activity, butyrate to butyryl-phosphate. Particulars: extracts from cells containing pZA33-0020-0021. It counts as biochemical, C. acetobutylicum. On the procedure: The enzyme activity of PTB is measured in the direction of butyryl-CoA to butyryl-phosphate as described in Cary et al. J. Bacteriol. 170:4613-4618 (1988). It provides inorganic phosphate for the conversion, and follows the increase in free CoA with the reagent 5,5′-dithiobis-(2-nitrobenzoic acid), or DTNB. DTNB rapidly reacts with thiol groups such as free CoA to release the yellow-colored 2-nitro-5-mercaptobenzoic acid (TNB), which absorbs at 412 nm with a molar extinction coefficient of 14,140 M cm^−1. The assay buffer contained 150 mM potassium phosphate at pH 7.4, 0.1 mM DTNB, and 0.2 mM butyryl-CoA, and the reaction was started by addition of 2 to 50 μL cell extract. The enzyme activity of BK is measured in the direction of butyrate to butyryl-phosphate formation at the expense of ATP. The procedure is similar to the assay for acetate kinase previously described Rose et al., J. Biol. Chem. 211:737-756 (1954). However we have found another acetate kinase enzyme assay protocol provided by Sigma to be more useful and sensitive. […] The reaction was started by adding 2 to 50 μL cell extract, and the reaction was monitored based on the decrease in absorbance at 340 nm indicating NADH oxidation. […]
B1: the “specific activity of BK” value is recorded as “approximately 65 U/mg”.

These data come from US8377667B2, “Microorganisms for the production of 1,4-butanediol, 4-hydroxybutanal, 4-hydroxybutyryl-CoA, putrescine and related compounds, and methods related thereto” (Genomatica, Inc., priority 2009, dated 2013).
